Assay results reported in patent US12162867B2, “Inhibitors of RNA helicase DHX9 and uses thereof” (ACCENT THERAPEUTICS, INC., priority 2022, dated 2024).

Key:
Type in all cases: cell-based
[1] = system: circBRIP1 in HCT116 cells; assay: DHX9 circBRIP1 cellular target engagement SYBR Green assay (qPCR); details: Homo sapiens, HCT-116, circBRIP1, HCT116 cells; ^+ SyBr assay was used; read-out: DHX9 Cellular Target Engagement EC50
LS411N cells = assay: DHX9 cellular proliferation assay (CellTiter-Glo), LS411N (CRC-MSI); details: Homo sapiens, LS-411N, LS411N; performed at Pharmaron; read-out: LS411N (CRC-MSI-H) Antiproliferative IC50
NCI-H747 cells = assay: DHX9 cellular proliferation assay (CellTiter-Glo), NCI-H747 (CRC-MSS); details: Homo sapiens, NCI-H747, NCI-H747; performed at Pharmaron; read-out: H747 (CRC-MSS) Antiproliferative IC50

| SMILES | EC50 [1] | IC50 (LS411N cells) | IC50 (NCI-H747 cells) |
| --- | --- | --- | --- |
| CCOc1ccc(-n2cc(C(=O)Nc3cc(Cl)cc(NS(C)(=O)=O)c3)cc2C)nc1 [Example 437] | 46.8 nM | 123 nM | > 10000 nM |
| CCOc1cnn(-c2cc(C(=O)Nc3cc(Cl)cc(NS(C)(=O)=O)c3)sc2C)c1 [Example 438] | 91.2 nM | 508 nM | > 10000 nM |
| COc1cnc(-n2cc(C(=O)Nc3cc(Cl)cc(NS(C)(=O)=O)c3)cc2C)nc1 [Example 441] | 123 nM | 130 nM | > 10000 nM |
| COCCOc1ccc(-n2cc(C(=O)Nc3cc(Cl)cc(NS(C)(=O)=O)c3)cc2C)nc1 [Example 442] | 46 nM | 123 nM | > 10000 nM |
| Cc1cc(C(=O)Nc2cc(Cl)cc(NS(C)(=O)=O)c2)cn1-c1ccc(C(F)(F)F)cn1 [Example 443] | 96 nM | 353 nM | 4360 nM |
| COCc1ccc(-n2cc(C(=O)Nc3cc(Cl)cc(NS(C)(=O)=O)c3)cc2C)nc1 [Example 447] | 27.8 nM | 110 nM | > 10000 nM |
| Cn1cc(C(=O)Nc2cc(Cl)cc(NS(C)(=O)=O)c2)cc1-c1ncc(N2CCCC2)cn1 [Example 520] | 40.2 nM | 118 nM | > 10000 nM |
| Cn1cc(C(=O)Nc2cc(Cl)cc(NS(C)(=O)=O)c2)cc1-c1ncc(N2CCC2)cn1 [Example 521] | 35.1 nM | 69 nM | > 10000 nM |
| Cn1cc(C(=O)Nc2cc(Cl)cc(NS(C)(=O)=O)c2)cc1-c1ccc(N2CCC2)cn1 [Example 538] | 57.4 nM | 124 nM | 3620 nM |
| Cn1cc(C(=O)Nc2cc(Cl)cc(NS(C)(=O)=O)c2)cc1-c1ccc(N2CC(F)C2)cn1 [Example 539] | 16.2 nM | 98.3 nM | 7010 nM |
| COc1cc(F)cnc1-c1cc(C(=O)Nc2cc(Cl)cc(NS(C)(=O)=O)c2)cn1C [Example 568, N-(3-chloro-5-methanesulfonamidophenyl)-5-(5-fluoro-3-methoxypyridin-2-yl)-1-methylpyrrole-3-carboxamide] | 57.5 nM | 349 nM | > 10000 nM |
| Cn1cc(C(=O)Nc2cc(Cl)cc(NS(C)(=O)=O)c2)cc1-c1ncc(C(F)(F)F)cn1 [Example 571] | 62.1 nM | 159 nM | 3560 nM |
| CCOc1ccc(-c2cc(C(=O)Nc3cc(Cl)cc(NS(C)(=O)=O)c3)cn2C)nc1 [Example 572] | 55.1 nM | 144 nM | > 10000 nM |
| COc1ccc(-c2cc(C(=O)Nc3cc(Cl)cc(NS(C)(=O)=O)c3)cn2C)nc1 [Example 573] | 106 nM | 103 nM | > 10000 nM |
| COCc1ccc(-c2cc(C(=O)Nc3cc(Cl)cc(NS(C)(=O)=O)c3)cn2C)nc1 [Example 574] | 39.5 nM | 92.2 nM | > 10000 nM |
| Cn1cc(C(=O)Nc2cc(Cl)cc(NS(C)(=O)=O)c2)cc1-c1ncccc1OCC1CC1 [Example 584] | 42.1 nM | 122 nM | > 10000 nM |
| Cn1cc(C(=O)Nc2cc(Cl)cc(NS(C)(=O)=O)c2)cc1-c1ccc(N2CC(F)(F)C2)cn1 [Example 595, N-(3-chloro-5-methanesulfonamidophenyl)-5-[5-(3,3-difluoroazetidin-1-yl)pyridin-2-yl]-1-methyl-1H-pyrrole-3-carboxamide] | 35.2 nM | 167 nM | 7400 nM |
| CS(=O)(=O)Nc1cc(Cl)cc(NC(=O)c2cc(-c3ncccc3OCc3cncc(F)c3)cs2)c1 [Example 620, N-(3-chloro-5-methanesulfonamidophenyl)-4-{3-[(5-fluoropyridin-3-yl)methoxy]pyridin-2-yl}thiophene-2-carboxamide] | 6.2 nM | 26.4 nM | > 10000 nM |
| Cc1sc(C(=O)Nc2cc(Cl)cc(NS(C)(=O)=O)c2)cc1-c1ncccc1OCc1cncc(F)c1 [Example 621] | 2 nM | 8.7 nM | > 10000 nM |
| COCc1cnc(-c2cc(C(=O)Nc3cc(Cl)cc(NS(C)(=O)=O)c3)cn2C)nc1 [Example 690] | 55.7 nM | 183 nM | > 10000 nM |
| Cc1cc(C(=O)Nc2cc(Cl)cc(NS(C)(=O)=O)c2)cn1-c1ncccc1OCC1CC1 [Example 713] | 105 nM | 105 nM | > 10000 nM |
| CS(=O)(=O)Nc1cc(Cl)cc(NC(=O)c2cnn(-c3c(F)cccc3OCc3cncc(F)c3)c2)c1 [Example 718] | 137 nM | 114 nM | > 10000 nM |
| CS(=O)(=O)Nc1cc(Cl)cc(NC(=O)c2cnn(-c3ccc(N4CC5(COC5)C4)cc3OCc3cccc(F)c3)c2)c1 [Example 722] | 51.1 nM | 50.6 nM | > 10000 nM |
| CS(=O)(=O)Nc1cc(Cl)cc(NC(=O)c2cc(CO)n(-c3ncccc3OCc3cncc(F)c3)c2)c1 [Example 723] | 73.5 nM | 733 nM | > 10000 nM |
